Drawing on patent US12281149B2, “Modulators of G-protein coupled receptors” (priority 2021, dated 2025), this text covers EC50 and Emax for 4 compounds.

Broadly, the EC50 is the concentration at which the effect is half-maximal. As usually defined, the Emax is the greatest response seen or fitted, relative to the assay's reference.

Structures are written as SMILES. Read-outs that look alike come from different tables or passages of the source. *1 amine or outer side, *2 acyl side, *3 side chain or, on linkers, in order; H or OH if unused. Where a SMILES comes first, the peptide text is derived from it. Side-chain parts run from the residue outwards. [ ]: non-standard residue; d: D form. The star is where a group is joined. Isobutyryl(2-(3-CN-5-F-Ph)) = CC(C)(C(=O)*)c1cc(F)cc(C#N)c1; C20 diacid = O=C(O)CCCCCCCCCCCCCCCCCCC(=O)*; Phenylacetyl(3-Cl) = O=C(Cc1cccc(Cl)c1)*; γGlu = O=C(O)[C@H](CCC(=O)[*:2])N[*:1]; X84 = O=C([C@H]1CCCN([*:1])C1)[*:2]; NH(4-Me-phenyl) = Cc1ccc(N*)cc1; AEEA = NCCOCCOCC(=O)O; Aib = CC(C)(N)C(=O)O; CO = O=C([*:1])[*:2]; GABA = NCCCC(=O)O; βAla = NCCC(=O)O

Type in all cases: cell-based
Assay [1] concerns the target T1, GLP-1 receptor (Homo sapiens, UniProt P43220). The assay is described as follows: PathHunter β-arrestin assay, GLP-1 receptor. More on the design: host or cells: PathHunter CHO-K1 GLP1R β-Arrestin Cell Line.
Assay [2] concerns the target T2, GIP receptor (Homo sapiens, UniProt P48546).
T2 sequence (P48546 22-466): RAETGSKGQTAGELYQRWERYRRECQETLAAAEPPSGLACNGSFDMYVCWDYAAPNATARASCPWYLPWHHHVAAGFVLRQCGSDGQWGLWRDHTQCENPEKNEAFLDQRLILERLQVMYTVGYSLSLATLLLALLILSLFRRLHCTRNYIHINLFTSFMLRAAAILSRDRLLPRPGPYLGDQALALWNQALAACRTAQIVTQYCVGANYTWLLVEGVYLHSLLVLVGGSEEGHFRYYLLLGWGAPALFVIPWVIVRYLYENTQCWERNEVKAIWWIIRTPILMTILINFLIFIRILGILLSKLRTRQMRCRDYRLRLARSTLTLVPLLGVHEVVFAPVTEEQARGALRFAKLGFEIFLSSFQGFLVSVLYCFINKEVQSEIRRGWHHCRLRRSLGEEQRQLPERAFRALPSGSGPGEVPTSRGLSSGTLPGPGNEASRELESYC
The assay is described as follows: PathHunter β-arrestin assay, GIP receptor. More on the design: host or cells: PathHunter CHO-K1 GIPR β-Arrestin Cell Line.

Assay [3] concerns the target T2, GIP receptor. The assay is described as follows: HitHunter cAMP assay, GIP receptor. As to conditions: for Emax: read-out: Emax GIP-1R. Background: Cyclic AMP is a second messenger, typically raised through Gs and lowered through Gi signalling.
Assay [4] deals with T1, GLP-1 receptor. The assay is described as follows: HitHunter cAMP assay, GLP-1 receptor. The settings on record: for Emax: read-out: Emax GLP-1R.
Where [5] appears, read: β-arrestin-2 recruitment, PathHunter CHO-K1 GLP1R β-Arrestin Cell Line, 90 min at 37° C., normalized to GLP-1, read-out: GLP-1R β Arrestin EC50.
[6] abbreviates: β-arrestin-2 recruitment, PathHunter CHO-K1 GIPR β-Arrestin Cell Line, 90 min at 37° C., normalized to GIP, read-out: GIPR β Arrestin EC50.
The mark [7] stands for this setting: CHO cells stably expressing GIP receptor, cAMP accumulation, 30 min, read-out: EC50 GIP-1R.
[8] abbreviates: CHO cells stably expressing human GLP-1 receptor, cAMP accumulation, 30 min, read-out: EC50 GLP-1R.
[9] abbreviates: CHO cells, cAMP, normalized to maximum signal from GLP-1 (high) and DMSO (low).

T1 sequence (P43220 24-463): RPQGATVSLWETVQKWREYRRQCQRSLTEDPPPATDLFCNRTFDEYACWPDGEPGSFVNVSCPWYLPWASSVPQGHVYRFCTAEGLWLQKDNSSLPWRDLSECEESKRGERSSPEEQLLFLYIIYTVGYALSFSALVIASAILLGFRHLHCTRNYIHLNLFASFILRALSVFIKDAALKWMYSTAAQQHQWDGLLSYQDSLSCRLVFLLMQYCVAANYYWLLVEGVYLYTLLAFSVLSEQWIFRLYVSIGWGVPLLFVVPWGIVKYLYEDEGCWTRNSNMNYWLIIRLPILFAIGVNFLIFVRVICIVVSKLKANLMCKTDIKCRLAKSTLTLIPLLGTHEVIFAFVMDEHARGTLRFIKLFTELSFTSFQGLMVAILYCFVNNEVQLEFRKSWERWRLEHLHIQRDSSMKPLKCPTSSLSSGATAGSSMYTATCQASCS

For `CC[C@H](C)[C@H](NC(=O)[C@H](CC(C)C)NC(=O)[C@H](Cc1c[nH]c2ccccc12)NC(=O)[C@H](CCC(N)=O)NC(=O)[C@@H](NC(=O)[C@H](Cc1ccccc1)NC(=O)[C@H](C)NC(=O)[C@H](CCCCNC(=O)COCCOCCNC(=O)COCCOCCNC(=O)CC[C@H](NC(=O)CCCCCCCCCCCCCCCCCCC(=O)O)C(=O)O)NC(=O)[C@H](CCC(N)=O)NC(=O)[C@H](C)NC(=O)[C@@H](NC(=O)[C@H](CCCCN)NC(=O)[C@H](CC(=O)O)NC(=O)[C@H](CC(C)C)NC(=O)C(C)(C)NC(=O)[C@@H](NC(=O)[C@H](CO)NC(=O)[C@H](Cc1ccc(O)cc1)NC(=O)[C@H](CC(=O)O)NC(=O)[C@H](CO)NC(=O)[C@@H](NC(=O)[C@H](Cc1ccccc1)NC(=O)[C@@H](NC(=O)CNC(=O)[C@H](CCC(=O)O)NC(=O)[C@H]1CCCN(C(=O)C(C)(C)c2cc(F)cc(C#N)c2)C1)[C@@H](C)O)[C@@H](C)O)[C@@H](C)CC)[C@@H](C)CC)C(C)C)C(=O)N[C@@H](C)C(=O)NCC(=O)NCC(=O)N1CCC[C@H]1C(=O)N[C@@H](CO)C(=O)N[C@@H](CO)C(=O)NCC(=O)N[C@@H](C)C(=O)N1CCC[C@H]1C(=O)N1CCC[C@H]1C(=O)N1CCC[C@H]1C(=O)N[C@@H](CO)C(N)=O` [Compound 212] ({Isobutyryl(2-(3-CN-5-F-Ph))}-[X84]EGTFTSDYSI[Aib]LDKIAQK([AEEA-AEEA-γGlu-C20 diacid])AFVQWLIAGGPSSGAPPPS-NH2), the EC50 on GLP-1 receptor [1] (setting [5]) was above 1000 nM; at GIP receptor [2] (setting [6]), above 1000 nM; on GIP receptor [3] (setting [7]), above 1000 nM; on GLP-1 receptor [4] (setting [8]), 10 to 100 nM. The maximal response (Emax) at GLP-1 receptor [4] (setting [9]) is 89%.

In the case of `CC[C@H](C)[C@H](NC(=O)[C@H](CC(C)C)NC(=O)[C@H](Cc1c[nH]c2ccccc12)NC(=O)[C@H](CCC(N)=O)NC(=O)[C@@H](NC(=O)[C@H](Cc1ccccc1)NC(=O)[C@H](C)NC(=O)[C@H](CCCCNC(=O)COCCOCCNC(=O)COCCOCCNC(=O)CC[C@H](NC(=O)CCCCCCCCCCCCCCCCCCC(=O)O)C(=O)O)NC(=O)[C@H](CCC(N)=O)NC(=O)[C@H](C)NC(=O)[C@@H](NC(=O)[C@H](CCCCN)NC(=O)[C@H](CC(=O)O)NC(=O)[C@H](CC(C)C)NC(=O)C(C)(C)NC(=O)[C@@H](NC(=O)[C@H](CO)NC(=O)[C@H](Cc1ccc(O)cc1)NC(=O)[C@H](CC(=O)O)NC(=O)[C@H](CO)NC(=O)[C@@H](NC(=O)[C@H](Cc1ccccc1)NC(=O)[C@@H](NC(=O)CNC(=O)[C@H](CCC(=O)O)NC(=O)CCNC(=O)CNC(=O)Cc1cccc(Cl)c1)[C@@H](C)O)[C@@H](C)O)[C@@H](C)CC)[C@@H](C)CC)C(C)C)C(=O)N[C@@H](C)C(=O)NCC(=O)NCC(=O)N1CCC[C@H]1C(=O)N[C@@H](CO)C(=O)N[C@@H](CO)C(=O)NCC(=O)N[C@@H](C)C(=O)N1CCC[C@H]1C(=O)N1CCC[C@H]1C(=O)N1CCC[C@H]1C(=O)N[C@@H](CO)C(N)=O` [Compound 230] ({Phenylacetyl(3-Cl)}-G[βAla]EGTFTSDYSI[Aib]LDKIAQK([AEEA-AEEA-γGlu-C20 diacid])AFVQWLIAGGPSSGAPPPS-NH2), the concentration for a half-maximal effect (EC50) on GLP-1 receptor [1] was above 1000 nM; at GIP receptor [2], above 1000 nM; at GIP receptor [3], 10 to 100 nM; at GLP-1 receptor [4], 1 to 10 nM. Also, the results for the maximal effect (Emax) on GIP receptor [3] (CHO) and at GLP-1 receptor [4] (CHO) were 96% and 99%, respectively.

Turning to `CC[C@H](C)[C@H](NC(=O)[C@H](CO)NC(=O)[C@H](Cc1ccc(O)cc1)NC(=O)[C@H](CC(=O)O)NC(=O)[C@H](CO)NC(=O)[C@@H](NC(=O)[C@H](Cc1ccccc1)NC(=O)[C@@H](NC(=O)CNC(=O)[C@H](CCC(=O)O)NC(=O)CCNC(=O)C1(c2ccc(Cl)cc2)CCCC1)[C@@H](C)O)[C@@H](C)O)C(=O)N[C@@H](Cc1ccc(O)cc1)C(=O)N[C@@H](CC(C)C)C(=O)N[C@@H](CC(=O)O)C(=O)N[C@@H](CCCCN)C(=O)N[C@@H](CCC(N)=O)C(=O)N[C@@H](C)C(=O)N[C@@H](C)C(=O)NC(C)(C)C(=O)N[C@@H](CCC(=O)O)C(=O)N[C@@H](Cc1ccccc1)C(=O)N[C@H](C(=O)N[C@@H](CC(N)=O)C(=O)N[C@@H](Cc1c[nH]c2ccccc12)C(=O)N[C@@H](CC(C)C)C(=O)N[C@@H](CC(C)C)C(=O)N[C@@H](C)C(=O)NCC(=O)NCC(=O)N1CCC[C@H]1C(=O)N[C@@H](CO)C(=O)N[C@@H](CO)C(=O)NCC(=O)N[C@@H](C)C(=O)N1CCC[C@H]1C(=O)N1CCC[C@H]1C(=O)N1CCC[C@H]1C(=O)N[C@@H](CO)C(=O)N[C@@H](CCCCNC(=O)COCCOCCNC(=O)COCCOCCNC(=O)CC[C@H](NC(=O)CCCCCCCCCCCCCCCCCCC(=O)O)C(=O)O)C(N)=O)C(C)C` [Compound 155], the EC50 at GLP-1 receptor [1] (setting [5]) was above 1000 nM; at GIP receptor [2] (setting [6]), above 1000 nM; at GIP receptor [3] (setting [7]) it was 10 to 100 nM; at GLP-1 receptor [4] (setting [8]), 1 to 10 nM. The Emax at GIP receptor [3] (CHO cells, cAMP, normalized to maximum signal from GIP (high) and DMSO (low)) was 104%; at GLP-1 receptor [4] (setting [9]), 101%.

Consider `CC[C@H](C)[C@H](NC(=O)[C@H](CC(C)C)NC(=O)[C@H](Cc1c[nH]c2ccccc12)NC(=O)[C@H](CCC(N)=O)NC(=O)[C@@H](NC(=O)[C@H](Cc1ccccc1)NC(=O)[C@H](C)NC(=O)[C@H](CCCCNC(=O)COCCOCCNC(=O)COCCOCCNC(=O)CC[C@H](NC(=O)CCCCCCCCCCCCCCCCCCC(=O)O)C(=O)O)NC(=O)[C@H](CCC(N)=O)NC(=O)[C@H](C)NC(=O)[C@@H](NC(=O)[C@H](CCCCN)NC(=O)[C@H](CC(=O)O)NC(=O)[C@H](CC(C)C)NC(=O)C(C)(C)NC(=O)[C@@H](NC(=O)[C@H](CO)NC(=O)[C@H](Cc1ccc(O)cc1)NC(=O)[C@H](CC(=O)O)NC(=O)[C@H](CO)NC(=O)[C@@H](NC(=O)[C@H](Cc1ccccc1)NC(=O)[C@@H](NC(=O)CNC(=O)[C@H](CCC(=O)O)NC(=O)CCCNC(=O)CNC(=O)Nc1ccc(C)cc1)[C@@H](C)O)[C@@H](C)O)[C@@H](C)CC)[C@@H](C)CC)C(C)C)C(=O)N[C@@H](C)C(=O)NCC(=O)NCC(=O)N1CCC[C@H]1C(=O)N[C@@H](CO)C(=O)N[C@@H](CO)C(=O)NCC(=O)N[C@@H](C)C(=O)N1CCC[C@H]1C(=O)N1CCC[C@H]1C(=O)N1CCC[C@H]1C(=O)N[C@@H](CO)C(N)=O` [Compound 271] ({NH(4-Me-phenyl)-CO}-G[GABA]EGTFTSDYSI[Aib]LDKIAQK([AEEA-AEEA-γGlu-C20 diacid])AFVQWLIAGGPSSGAPPPS-NH2), for which the EC50 at GLP-1 receptor [1] is above 1000 nM; at GIP receptor [2], below 1000 nM; at GIP receptor [3] it was 1 to 10 nM; on GLP-1 receptor [4] it was 1 to 10 nM. The figures for the Emax at GIP receptor [3] (CHO) and at GLP-1 receptor [4] (CHO) were 105% and 94%, respectively.
